According to US6638542B2, “Reducing appetite in mammals by administering procyanidin and hydroxycitric acid” (Nutricia N.V., priority 2001, dated 2003):

Assay: Appetite reducing effects of coadministered procyanidin and hydroxycitric acid: voluntary food intake, placebo-controlled cross-over study
Assay type: in vivo, male Wistar rats
Details: 155 mg hydroxycitric acid per kg rat alone, single intragastric bolus, vs placebo, paired student t, FIG. 2
Experimental: The appetite suppressive effects of a combination of procyanidin (pine bark extract containing 65 wt. % procyanidin) and hydroxycitric acid (Regulator™ ex HOB Ireland, Dublin, Ireland) was tested in male Wistar rats. In a placebo-controlled cross-over study, either 13 mg procyanidin per kg rat (A), 155 mg hydroxycitric acid per kg rat (B) or 13 mg procyanidin per kg rat and 155 mg hydroxycitric acid per kg rat (C) were administered as a single bolus intragastrically at 30 min before onset of the active (dark) period.
Subsequently, voluntary food intake was recorded continuously for 48 hours. Following this period, the experiment was repeated as part of the cross-over design (that is, rats which first received the procyanidins now received the placebo and vice versa).
Results are shown as absolute cumulative food intake after 1,2 and 4 hours (see FIG. 2). Statistical analysis (paired student t) was made of the data.

O=C(O)CC(O)(C(=O)O)C(O)C(=O)O (centres unmarked) [hydroxycitric acid]
absolute cumulative food intake after 1, 2 and 4 hours: did not result in a significant decrease | absolute cumulative food intake after 1, 2 and 4 hours (listed as HCA): did not show any significant appetite reducing effect
